Laboratory results: paper PMC3265452 (PLoS Neglected Tropical Diseases, 2012)
Counter-ions that a name gives are not always drawn.

Target: AaDOP2 (Aedes aegypti, UniProt H6D5H2)
Assay: AaDOP2 antagonist screen of the LOPAC1280 library (HEK-CRELuc-Aadop2 cells, luminescence)
Format: cell-based
Conditions: not given

Chain of AaDOP2 (H6D5H2 1-476): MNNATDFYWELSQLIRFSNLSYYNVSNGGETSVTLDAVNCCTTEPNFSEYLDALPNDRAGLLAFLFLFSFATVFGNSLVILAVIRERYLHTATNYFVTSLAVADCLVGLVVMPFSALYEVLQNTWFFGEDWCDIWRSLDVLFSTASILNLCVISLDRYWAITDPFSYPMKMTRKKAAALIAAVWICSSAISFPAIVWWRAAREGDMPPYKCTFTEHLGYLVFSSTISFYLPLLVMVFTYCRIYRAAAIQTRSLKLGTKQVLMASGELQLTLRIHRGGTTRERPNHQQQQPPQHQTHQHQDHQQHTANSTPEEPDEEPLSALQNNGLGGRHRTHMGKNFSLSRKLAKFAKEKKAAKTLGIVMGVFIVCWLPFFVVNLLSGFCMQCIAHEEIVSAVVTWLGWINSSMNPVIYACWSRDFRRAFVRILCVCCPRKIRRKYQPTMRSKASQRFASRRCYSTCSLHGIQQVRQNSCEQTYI

In order of falling “Compound effect (percent receptor signaling in presence of test compound, relative lux units relative to the SCH23390 control)” value:
1. O=C(O)C1=CC(=C(c2ccc(O)c(C(=O)O)c2)c2ccc(O)c(C(=O)O)c2)C=CC1=O [Compound 30, Aurintricarboxylic acid]  132
2. NS(=O)(=O)Cc1noc2ccccc12 [Compound 1277, Zonisamide sodium]  130
3. Cl.O=C(O)Cc1c[nH]cn1 [Compound 629, Imidazole-4-acetic acid hydrochloride]  122
4. CC[N+](C)(C)c1cccc(O)c1 [Compound 484, Edrophonium chloride]  118
5. c1ccc(C2CN3CCSC3=N2)cc1 (stereo not drawn) [Compound 1152, Tetramisole hydrochloride]  118
6. CC(/C=C/c1cccc(Oc2ccc(F)cc2)c1)N(O)C(N)=O (stereo not drawn) [Compound 173, BWB70C]  118
7. O=C(O)[C@@H]1[C@H](C(=O)O)[C@H]2CC[C@@H]1O2 [Compound 495, Endothall]  117
8. Nc1nc2ccc(Cl)cc2c2nc(-c3ccco3)nn12 [Compound 345, CGS-15943]  117
9. CCN(CCCl)Cc1ccccc1Br.Cl [Compound 310, DSP-4 hydrochloride]  111
10. CCCn1c(=O)c2[nH]c(C3CCCC3)nc2n(CCC)c1=O [Compound 327, 8-Cyclopentyl-1,3-dipropylxanthine]  111
11. CN(C)C(=O)Oc1ccc[n+](C)c1 [Compound 1000, Pyridostigmine bromide]  106
12. Nc1ncn([C@@H]2O[C@H](CO)[C@@H](O)[C@H]2O)c(=O)n1 [Compound 36, 5-azacytidine]  103
13. C[C@H](Cc1ccc2c(c1)OC(C(=O)O)(C(=O)O)O2)NC[C@H](O)c1cccc(Cl)c1 [Compound 278, CL 316,243]  101
14. CCCCCCCCCCCCCCCCCC(=O)OC(CC(=O)O)C[N+](C)(C)C.[Cl-] (racemic) [Compound 1088, DL-Stearoylcarnitine chloride]  101
15. CC(=N)NCCCC[C@H](N)C(=O)O.Cl [Compound 659, L-N6-(1-Iminoethyl)lysine hydrochloride]  101
16. N[C@H](CO)C(=O)O [Compound 1101, D-Serine]  100
17. NNc1nncc2ccccc12 [Compound 580, Hydralazine hydrochloride]  100
18. Clc1ccc(N2C[C@H]3CC[C@@H](C2)N3)nn1 [Compound 414, DBO-83]  100
19. Cn1cc(C(=O)OCC2CCN(CCNS(C)(=O)=O)CC2)c2ccccc21 [Compound 253, GR 113808]  97
20. C=C/C(C)=C/[C@@]1(C)SC(=O)C(C)=C1O [Compound 939, Thiolactomycin]  96
21. O=C1C=CC(=O)C=C1 [Compound 156, p-Benzoquinone]  96
22. CCCNC(C)C(=O)Nc1ccccc1C (stereo not drawn) [Compound 997, Prilocaine hydrochloride]  95
23. CN(C)c1ccc(O)c2c1C[C@H]1C[C@H]3[C@H](N(C)C)C(O)=C(C(N)=O)C(=O)[C@@]3(O)C(O)=C1C2=O [Compound 809, Minocycline hydrochloride]  94
24. O=C(O)c1ccccc1Nc1cccc(OCc2ccc3ccccc3n2)c1 [Compound 1108, SR 2640]  91
25. CC(C)NC[C@H](O)COc1cccc2ccccc12 [Compound 983, (S)-Propranolol hydrochloride]  90
26. N=C(N)c1ccc(OCCCCCOc2ccc(C(=N)N)cc2)cc1 [Compound 917, Pentamidine isethionate]  87
27. CC(C)(C(=O)O)c1ccc(C(O)CCCN2CCC(C(O)(c3ccccc3)c3ccccc3)CC2)cc1 (stereo not drawn) [Compound 537, Fexofenadine hydrochloride]  87
28. Brc1c(NC2=NCCN2)ccc2nccnc12 [Compound 1242, UK 14,304]  87
29. O=c1cc(-c2ccc(O)c(O)c2)oc2cc(O)cc(O)c12 [Compound 714, Luteolin]  87
30. Cc1cccc(/C=C/c2ccccc2)n1 [Compound 1126, SIB 1893]  83
31. VER-3323 hemifumarate salt [Compound 706]  82
32. O=C(C1CCCCC1)N1CC(=O)N2CCc3ccccc3C2C1 (stereo not drawn) [Compound 947, Praziquantel]  81
33. Cn1cc(C2=C(c3ccc(Cl)cc3Cl)C(=O)NC2=O)c2ccccc21 [Compound 910, SB 216763]  80
34. O=C(O)c1cc(O)c2ccc(Cl)cc2n1 [Compound 333, 7-Chlorokynurenic acid]  79
35. O=c1ccn([C@@H]2O[C@H](COP(=O)([O-])OP(=O)([O-])[O-])[C@@H](O)[C@H]2O)c(=O)[nH]1.[Na+].[Na+].[Na+] [Compound 1233, Uridine 5'-diphosphate sodium]  78
36. CC(C)COCC(CN(Cc1ccccc1)c1ccccc1)N1CCCC1 (stereo not drawn) [Compound 175, Bepridil hydrochloride]  78
37. O=c1ccc2ccc(O)c(O)c2o1 [Compound 393, Daphnetin]  74
38. CCOC(=O)C(C)(C)Oc1ccc(Cl)cc1 [Compound 287, Clofibrate]  74
39. O=c1[nH]c2ccccc2n1CCCN1CCN(C(c2ccccc2)c2ccccc2)CC1 [Compound 909, Oxatomide]  72
40. CC1=C(C)C(=O)C(CCCCC#CCCCC#CCO)=C(C)C1=O [Compound 43, AA-861]  69
41. COc1ccccc1CNCCCCCCNCCCCCCCCNCCCCCCNCc1ccccc1OC [Compound 815, Methoctramine tetrahydrochloride]  66
42. Br.Cc1cccc(C2CN(C)CCc3c2cc(O)c(O)c3Cl)c1 (stereo not drawn) [Compound 1091, SKF 83959 hydrobromide]  50
43. COC[C@H]1OC(=O)c2coc3c2[C@@]1(C)C1=C(C3=O)[C@@H]2CCC(=O)[C@@]2(C)C[C@H]1OC(C)=O [Compound 1261, Wortmannin from Penicillium funiculosum]  42

Same assay, conditions: 10 µM compound, 300 nM dopamine, 2 hr; hit = compound effect <20

In order of falling “Compound effect (percent receptor signaling in presence of test compound, relative lux units relative to the SCH23390 control)” value:
1. CCCCCC(O)CCCC(=O)O.[Na] (stereo not drawn) [Compound 623, 5-hydroxydecanoic acid sodium]  126%
2. O=C(O)CN(CCN(CC(=O)O)CC(=O)O)CCN(CC(=O)O)CC(=O)O [Compound 404, Diethylenetriaminepentaacetic acid]  118%
3. C=CC(N)CCC(=O)O (racemic) [Compound 1256, (±)-gamma-Vinyl GABA]  108%
4. CN1CCN(c2nc3cc(C(F)(F)F)ccc3n3cccc23)CC1.O=C(O)/C=C\C(=O)O [Compound 330, CGS-12066A maleate]  104%
5. Br.CCSC(=N)N [Compound 482, S-Ethylisothiourea hydrobromide]  104%
6. Br.Cc1o[nH]c(=O)c1CC(N)C(=O)O (racemic) [Compound 563, (±)-AMPA hydrobromide]  101%
7. Nc1ncnc2c1nc(Sc1ccc(Cl)cc1)n2C1OC2COP(=O)(O)O[C@H]2C1O (stereo in doubt) [Compound 251, 8-(4-Chlorophenylthio)-cAMP sodium]  97%
8. (±)-PD 128,907 hydrochloride [Compound 1024]  95%
9. CN1C2CCC1CC(NC(=O)c1nn(C)c3ccccc13)C2.O=C(O)/C=C\C(=O)O (stereo not drawn) [Compound 723, LY-278,584 maleate]  92%
10. cis-(±)-8-OH-PBZI hydrobromide [Compound 918]  88%
11. CN(C)CCC(c1ccc(Br)cc1)c1ccccn1.O=C(O)/C=C\C(=O)O (racemic) [Compound 165, (±)-Brompheniramine maleate]  63%
